Results reported in PubChem BioAssay (NCI).
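Test compounds were applied to cells in 96-well plates for 48 hours at 5 doses. TGI marks complete inhibition of growth.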

What was measured:
Test in all cases: NCI-60 cell line screen, 48 h
A549 NSCLC = system: A549 NSCLC
BT-549 breast = system: BT-549 breast
HCC-2998 colon = system: HCC-2998 colon
HCT-116 colon = system: HCT-116 colon
HS 578T breast = system: HS 578T breast
KM12 colon = system: KM12 colon
MDA-N = system: MDA-N
MOLT-4 leukemia = system: MOLT-4 leukemia
NCI-H23 lung = system: NCI-H23 lung
NCI/ADR-RES ovarian = system: NCI/ADR-RES ovarian
PC-3 prostate = system: PC-3 prostate
RPMI-8226 leukemia = system: RPMI-8226 leukemia
SF-539 CNS = system: SF-539 CNS
SK-MEL-2 melanoma = system: SK-MEL-2 melanoma
SK-MEL-28 melanoma = system: SK-MEL-28 melanoma
SK-MEL-5 melanoma = system: SK-MEL-5 melanoma
SN12C renal = system: SN12C renal
SNB-19 CNS = system: SNB-19 CNS
SR leukemia = system: SR leukemia
NCI-H226 lung = system: NCI-H226 lung

## Cc1csc2nc3c(cnn3C)c(=S)n12
A549 NSCLC
  TGI: > 100 µM
BT-549 breast
  TGI: > 100 µM
HCC-2998 colon
  TGI: > 100 µM
HCT-116 colon
  TGI: > 100 µM
HS 578T breast
  TGI: > 100 µM
KM12 colon
  TGI: > 100 µM
MDA-N
  TGI: > 100 µM
MOLT-4 leukemia
  TGI: > 100 µM
NCI-H23 lung
  TGI: > 100 µM
NCI/ADR-RES ovarian
  TGI: > 100 µM
PC-3 prostate
  TGI: > 100 µM
RPMI-8226 leukemia
  TGI: > 100 µM
SF-539 CNS
  TGI: > 100 µM
SK-MEL-2 melanoma
  TGI: > 100 µM
SK-MEL-28 melanoma
  TGI: > 100 µM
SK-MEL-5 melanoma
  TGI: > 100 µM
SN12C renal
  TGI: > 100 µM
SNB-19 CNS
  TGI: > 100 µM
SR leukemia
  TGI: > 100 µM

## CN1C2CCC1CC(CCOC(c1ccc(F)cc1)c1ccc(F)cc1)C2 (stereo unspecified)
A549 NSCLC
  TGI: 35.7 µM
BT-549 breast
  TGI: 31.1 µM
HCT-116 colon
  TGI: 27.4 µM
HS 578T breast
  TGI: 44.5 µM
KM12 colon
  TGI: 30.8 µM
MDA-N
  TGI: 37.5 µM
MOLT-4 leukemia
  TGI: 44 µM
NCI-H226 lung
  TGI: 29.1 µM
NCI-H23 lung
  TGI: 42.1 µM
NCI/ADR-RES ovarian
  TGI: 36.5 µM
PC-3 prostate
  TGI: 29.6 µM
RPMI-8226 leukemia
  TGI: 44.4 µM
SF-539 CNS
  TGI: 29.9 µM
SK-MEL-2 melanoma
  TGI: 31.4 µM
SK-MEL-28 melanoma
  TGI: 31.7 µM
SK-MEL-5 melanoma
  TGI: 21.3 µM
SN12C renal
  TGI: 38.2 µM
SNB-19 CNS
  TGI: 41.6 µM
SR leukemia
  TGI: 38.2 µM

## CCN(CC)C(=C(C(Cl)=C(Cl)Cl)[N+](=O)[O-])N(CC)CC
A549 NSCLC
  TGI: > 100 µM
BT-549 breast
  TGI: > 100 µM
HCC-2998 colon
  TGI: > 100 µM
HCT-116 colon
  TGI: > 100 µM
HS 578T breast
  TGI: 68.5 µM
KM12 colon
  TGI: > 100 µM
MDA-N
  TGI: > 100 µM
MOLT-4 leukemia
  TGI: > 100 µM
NCI-H226 lung
  TGI: > 100 µM
NCI-H23 lung
  TGI: > 100 µM
NCI/ADR-RES ovarian
  TGI: > 100 µM
PC-3 prostate
  TGI: > 100 µM
RPMI-8226 leukemia
  TGI: > 100 µM
SF-539 CNS
  TGI: > 100 µM
SK-MEL-28 melanoma
  TGI: > 100 µM
SK-MEL-5 melanoma
  TGI: > 100 µM
SN12C renal
  TGI: > 100 µM
SNB-19 CNS
  TGI: > 100 µM
SR leukemia
  TGI: > 100 µM

## Cc1cc(C)nc(NS(=O)(=O)c2ccc(Nc3c4ccccc4nc4c(C(=O)NNCCO)cccc34)cc2)n1
A549 NSCLC
  TGI: > 100 µM
BT-549 breast
  TGI: > 100 µM
HCC-2998 colon
  TGI: > 100 µM
HS 578T breast
  TGI: > 100 µM
KM12 colon
  TGI: > 100 µM
MDA-N
  TGI: > 100 µM
MOLT-4 leukemia
  TGI: > 100 µM
NCI-H23 lung
  TGI: > 100 µM
NCI/ADR-RES ovarian
  TGI: > 100 µM
PC-3 prostate
  TGI: > 100 µM
RPMI-8226 leukemia
  TGI: > 100 µM
SK-MEL-2 melanoma
  TGI: > 100 µM
SK-MEL-28 melanoma
  TGI: > 100 µM
SK-MEL-5 melanoma
  TGI: > 100 µM
SN12C renal
  TGI: > 100 µM
SNB-19 CNS
  TGI: > 100 µM
SR leukemia
  TGI: > 100 µM

## O=C1CC(=O)NC(=NN2C(=O)/C(=C/C(=O)c3ccco3)N=C2c2ccccc2)N1
A549 NSCLC
  TGI: > 100 µM
BT-549 breast
  TGI: > 100 µM
HCC-2998 colon
  TGI: > 100 µM
HCT-116 colon
  TGI: > 100 µM
HS 578T breast
  TGI: > 100 µM
KM12 colon
  TGI: > 100 µM
MDA-N
  TGI: > 100 µM
MOLT-4 leukemia
  TGI: 60.7 µM
NCI-H226 lung
  TGI: > 100 µM
NCI-H23 lung
  TGI: > 100 µM
NCI/ADR-RES ovarian
  TGI: > 100 µM
PC-3 prostate
  TGI: > 100 µM
SF-539 CNS
  TGI: > 100 µM
SK-MEL-2 melanoma
  TGI: > 100 µM
SK-MEL-28 melanoma
  TGI: > 100 µM
SN12C renal
  TGI: > 100 µM
SR leukemia
  TGI: 41.3 µM

## c1ccc2c(C3CCN(CCN4CCOCC4)C3)c[nH]c2c1 (stereo unspecified)
A549 NSCLC
  TGI: > 100 µM
BT-549 breast
  TGI: > 100 µM
HCC-2998 colon
  TGI: > 100 µM
HCT-116 colon
  TGI: > 100 µM
HS 578T breast
  TGI: > 100 µM
KM12 colon
  TGI: > 100 µM
MDA-N
  TGI: > 100 µM
NCI-H23 lung
  TGI: > 100 µM
NCI/ADR-RES ovarian
  TGI: > 100 µM
PC-3 prostate
  TGI: > 100 µM
RPMI-8226 leukemia
  TGI: > 100 µM
SK-MEL-2 melanoma
  TGI: > 100 µM
SK-MEL-28 melanoma
  TGI: > 100 µM
SK-MEL-5 melanoma
  TGI: > 100 µM
SN12C renal
  TGI: > 100 µM
SNB-19 CNS
  TGI: > 100 µM
SR leukemia
  TGI: > 100 µM

## CCC(C)C(C(=O)N/N=C1/SCC(=O)N1c1ccccc1)C(=O)N/N=C1/SCC(=O)N1c1ccccc1 (stereo unspecified)
A549 NSCLC
  TGI: > 100 µM
BT-549 breast
  TGI: > 100 µM
HCC-2998 colon
  TGI: > 100 µM
HCT-116 colon
  TGI: 58.9 µM
HS 578T breast
  TGI: > 100 µM
KM12 colon
  TGI: 93.9 µM
MDA-N
  TGI: 94.6 µM
MOLT-4 leukemia
  TGI: > 100 µM
NCI-H23 lung
  TGI: > 100 µM
NCI/ADR-RES ovarian
  TGI: > 100 µM
PC-3 prostate
  TGI: > 100 µM
SF-539 CNS
  TGI: > 100 µM
SK-MEL-2 melanoma
  TGI: 83.1 µM
SK-MEL-28 melanoma
  TGI: 33.9 µM
SK-MEL-5 melanoma
  TGI: 41.7 µM
SN12C renal
  TGI: > 100 µM
SNB-19 CNS
  TGI: > 100 µM
SR leukemia
  TGI: > 100 µM

## COc1ccc(OC)c2sc(N3C(=O)/C(=C/c4ccc(Cl)cc4)N=C3c3ccccc3)nc12
A549 NSCLC
  TGI: > 100 µM
BT-549 breast
  TGI: > 100 µM
HCC-2998 colon
  TGI: > 100 µM
HCT-116 colon
  TGI: > 100 µM
HS 578T breast
  TGI: > 100 µM
KM12 colon
  TGI: > 100 µM
MDA-N
  TGI: > 100 µM
MOLT-4 leukemia
  TGI: 66.8 µM
NCI-H23 lung
  TGI: > 100 µM
NCI/ADR-RES ovarian
  TGI: > 100 µM
PC-3 prostate
  TGI: > 100 µM
RPMI-8226 leukemia
  TGI: > 100 µM
SF-539 CNS
  TGI: > 100 µM
SK-MEL-2 melanoma
  TGI: > 100 µM
SK-MEL-28 melanoma
  TGI: > 100 µM
SK-MEL-5 melanoma
  TGI: > 100 µM
SN12C renal
  TGI: > 100 µM
SNB-19 CNS
  TGI: > 100 µM
SR leukemia
  TGI: > 100 µM

## N#C/C(=C\c1cn(Cc2ccccc2)c2ccccc12)c1nn(-c2ccccc2)c(N)c1C#N
A549 NSCLC
  TGI: 24.6 µM
BT-549 breast
  TGI: 58.3 µM
HCT-116 colon
  TGI: > 100 µM
HS 578T breast
  TGI: > 100 µM
KM12 colon
  TGI: > 100 µM
MDA-N
  TGI: 88.1 µM
MOLT-4 leukemia
  TGI: > 100 µM
NCI-H23 lung
  TGI: 29.7 µM
NCI/ADR-RES ovarian
  TGI: 49 µM
PC-3 prostate
  TGI: 19.8 µM
RPMI-8226 leukemia
  TGI: > 100 µM
SF-539 CNS
  TGI: 7.22 µM
SK-MEL-2 melanoma
  TGI: 16.9 µM
SK-MEL-28 melanoma
  TGI: > 100 µM
SK-MEL-5 melanoma
  TGI: 23.6 µM
SN12C renal
  TGI: 38.7 µM
SNB-19 CNS
  TGI: 28.8 µM
SR leukemia
  TGI: > 100 µM

## CC1=NN(C(=O)CC(=O)Nc2ccc(C)cc2)C(=O)C1N=Nc1ccc(C(=O)O)cc1 (stereo unspecified)
A549 NSCLC
  TGI: > 100 µM
BT-549 breast
  TGI: > 100 µM
HCC-2998 colon
  TGI: > 100 µM
HCT-116 colon
  TGI: > 100 µM
HS 578T breast
  TGI: > 100 µM
KM12 colon
  TGI: > 100 µM
MDA-N
  TGI: > 100 µM
NCI-H23 lung
  TGI: > 100 µM
NCI/ADR-RES ovarian
  TGI: > 100 µM
PC-3 prostate
  TGI: > 100 µM
RPMI-8226 leukemia
  TGI: > 100 µM
SF-539 CNS
  TGI: > 100 µM
SK-MEL-2 melanoma
  TGI: > 100 µM
SK-MEL-28 melanoma
  TGI: > 100 µM
SK-MEL-5 melanoma
  TGI: > 100 µM
SN12C renal
  TGI: > 100 µM
SNB-19 CNS
  TGI: > 100 µM
SR leukemia
  TGI: > 100 µM
